Data on 14 molecules can be found in patent EP4667466A1, “PROTAC DEGRADERS OF MLLT1 AND/OR MLLT3” (priority 2024, dated 2025).

For the experiment, the target named is T1, MLLT1 (Homo sapiens, UniProt Q03111).
T1 construct: endogenous in cells; host or cells: MV4-11 (ATCC CRL-9591)
T1 sequence (Q03111 1-559): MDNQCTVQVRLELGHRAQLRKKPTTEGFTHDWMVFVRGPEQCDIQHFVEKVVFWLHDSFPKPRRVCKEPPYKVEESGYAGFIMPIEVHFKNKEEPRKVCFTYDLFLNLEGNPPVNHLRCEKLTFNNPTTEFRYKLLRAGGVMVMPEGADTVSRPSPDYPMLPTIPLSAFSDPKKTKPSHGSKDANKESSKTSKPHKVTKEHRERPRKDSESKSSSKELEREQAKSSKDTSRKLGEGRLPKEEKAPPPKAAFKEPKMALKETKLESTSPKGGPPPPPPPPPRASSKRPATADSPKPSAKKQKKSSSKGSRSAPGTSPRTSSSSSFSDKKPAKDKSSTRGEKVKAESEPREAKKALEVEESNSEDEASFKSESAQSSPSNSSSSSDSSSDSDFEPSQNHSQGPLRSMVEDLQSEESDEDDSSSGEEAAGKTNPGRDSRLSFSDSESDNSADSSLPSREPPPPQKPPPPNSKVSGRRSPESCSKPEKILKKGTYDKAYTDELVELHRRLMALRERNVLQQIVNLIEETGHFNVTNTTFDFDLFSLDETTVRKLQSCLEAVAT
As to the kind of experiment: MLLT1 degradation assay (JESS automated chemiluminescent detection) in MV4-11 cells. It is filed as cell-based. The conditions noted are these: 24h, with respect to DMSO control. The procedure:
MLLT1 degradation efficacy of compounds was tested in an automated chemiluminescent detection system (JESS, Cat# 004-650). MV4-11 (#CRL-9591, ATCC) cells were seeded at a density of 1.2 million cells/well in a non-treated 6-well cell culture plate in 2.4 mL of complete medium (IMDM + 10% FBS + 1X Penicillin-Streptomycin). 10 mM DMSO stocks were prepared, and cells were treated with three concentrations of test compounds viz. 1000, 100 and 10 nM at a final DMSO concentration of 0.1% and incubated for 24h at 37°C, 5% CO2. Post incubation, cells were centrifuged, washed with HBSS and lysed in 70 uL of RIPA buffer supplemented with Protease inhibitors (sc-24948; Santa Cruz). Subsequently, protein estimation was done using BCA protein assay kit (23225; Pierce). 4 ug protein lysate (4 uL of 1ug/uL lysate) was loaded into each well of the JESS cartridge (SM-WO01; Bio-techne) and the JESS run was performed using 1:900 dilution of anti-human MLLT1 antibody (14893; Cell signaling technology) and 1:1200 dilution of anti-human GAPDH antibody (2118; Cell signaling technology) with anti-rabbit secondary detection module (DM-001; Bio-Techne). Post run, data were analysed using "Compass for SW" software for chemiluminescent detection. The peak area for each band was used for the calculation of MLLT1 degradation with respect to DMSO control. Data is shown as "MLLT1 % degradation". Category A: A ≥ 75% degradation Category B: 50% ≤ B < 75% degradation Category C: 25% ≤ C < 50% degradation Category D: D < 25% degradation Table 1

What is called inhibition is the share of the control response that was lost under treatment. Take `Cc1nn(CCCCCN2CCN(c3cccc4c3C(=O)N(C3CCC(=O)NC3=O)C4=O)CC2)c2cc(C(=O)Nc3cc4[nH]c([C@H]5CCCN5C)cc4cn3)ccc12` (stereo partly drawn) [Example 47, 1-(5-(4-(2-(2,6-dioxopiperidin-3-yl)-1,3-dioxoisoindolin-4-yl)piperazin-1-yl)pentyl)-3-methyl-N-(2-((R)-1-methylpyrrolidin-2-yl)-1H-pyrrolo[3,2-c]pyridin-6-yl)-1H-indazole-6-carboxamide]: the inhibition at 0.01 µM was below 25%, the inhibition at 0.1 µM is below 25% and the inhibition at 1 µM was 50 to 75%.

The molecule `Cc1nn(CCCCCCCC#Cc2cccc(C(=O)N[C@H]3CCC(=O)NC3=O)n2)c2cc(C(=O)Nc3cc4[nH]c([C@H]5CCCN5C)cc4cn3)ccc12` [Example 42, 1-(9-(6-(((S)-2,6-dioxopiperidin-3-yl)carbamoyl)pyridin-2-yl)non-8-yn-1-yl)-3-methyl-N-(2-((R)-1-methylpyrrolidin-2-yl)-1H-pyrrolo [3,2-c]pyridin-6-yl)-1H-indazole-6-carboxamide] showed an inhibition at 0.01 µM of 50 to 75%, an inhibition at 0.1 µM of at least 75% and an inhibition at 1 µM of at least 75%.

In turn, `Cc1nn(CCCCCCCC#Cc2ccc(F)c3c2CN(C2CCC(=O)NC2=O)C3=O)c2cc(C(=O)Nc3cc4[nH]c([C@H]5CCCN5C)cc4cn3)ccc12` (stereo partly drawn) [Example 52, 1-(9-(2-(2,6-dioxopiperidin-3-yl)-7-fluoro-1-oxoisoindolin-4-yl)non-8-yn-1-yl)-3-methyl-N-(2-((R)-1-methylpyrrolidin-2-yl)-1H-pyrrolo[3,2-c]pyridin-6-yl)-1H-indazole-6-carboxamide] had an inhibition at 0.01 µM of at least 75%, an inhibition at 0.1 µM of at least 75% and an inhibition at 1 µM of at least 75%.

On to `CN1CCC[C@@H]1c1cc2cnc(NC(=O)c3ccc4c(c3)c(N3CCC(CN5CCN(c6cc7c(cc6F)C(=O)N(C6CCC(=O)NC6=O)C7=O)CC5)CC3)nn4C)cc2[nH]1` (stereo partly drawn) [Example 6, 3-[4-({4-[2-(2,6-dioxopiperidin-3-yl)-6-fluoro-1,3-dioxoisoindol-5-yl]piperazin-1-yl}methyl)piperidin-1-yl]-1-methyl-N-{2-[(2R)-1-methylpyrrolidin-2-yl]-1H-pyrrolo[3,2-c]pyridin-6-yl}indazole-5-carboxamide], for which the inhibition at 0.01 µM fell in the range of 25 to 50%, the inhibition at 0.1 µM was 50 to 75% and the inhibition at 1 µM is at least 75%.

In the case of `Cc1c([C@H]2CCCN2C)[nH]c2cc(NC(=O)c3ccc4c(C)nn(CCCCCCCC#Cc5cccc6c5CN(C5CCC(=O)NC5=O)C6=O)c4c3)ncc12` (stereo partly drawn) [Example 57, 1-(9-(2-(2,6-dioxopiperidin-3-yl)-1-oxoisoindolin-4-yl)non-8-yn-1-yl)-3-methyl-N-(3-methyl-2-((R)-1-methylpyrrolidin-2-yl)-1H-pyrrolo[3,2-c]pyridin-6-yl)-1H-indazole-6-carboxamide], the inhibition at 0.01 µM is at least 75%, the inhibition at 0.1 µM is at least 75% and the inhibition at 1 µM is at least 75%.

`Cc1nn(CCCCCCCC#Cc2ccnc(C(=O)N[C@H]3CCC(=O)NC3=O)c2)c2cc(C(=O)Nc3cc4[nH]c([C@H]5CCCN5C)cc4cn3)ccc12` [Example 43, 1-(9-(2-(((S)-2,6-dioxopiperidin-3-yl)carbamoyl)pyridin-4-yl)non-8-yn-1-yl)-3-methyl-N-(2-((R)-1-methylpyrrolidin-2-yl)-1H-pyrrolo [3,2-c]pyridin-6-yl)-1H-indazole-6-carboxamide] came in with an inhibition at 0.01 µM of 25 to 50%, an inhibition at 0.1 µM of 50 to 75% and an inhibition at 1 µM of at least 75%.

In turn, `Cc1nn(CCOCCCCC#Cc2cccc3c2CN(C2CCC(=O)NC2=O)C3=O)c2cc(C(=O)Nc3cc4[nH]c([C@H]5CCCN5C)cc4cn3)ccc12` (some centres unmarked) [Example 50] came in with an inhibition at 0.01 µM of at least 75%, an inhibition at 0.1 µM of at least 75% and an inhibition at 1 µM of at least 75%.

Molecule `Cc1nn(CCCCCCCCNc2cccc3c2C(=O)N(C2CCC(=O)NC2=O)C3=O)c2cc(C(=O)Nc3cc4[nH]c(C5CCCN5C)cc4cn3)ccc12` (racemic) [Example 2, rac-1-(8-{[2-(2,6-dioxopiperidin-3-yl)-1,3-dioxoisoindol-4-yl]amino}octyl)-3-methyl-N-[2-(1-methylpyrrolidin-2-yl)-1H-pyrrolo[3,2-c]pyridin-6-yl]indazole-6-carboxamide] yielded an inhibition at 0.01 µM of 50 to 75%, an inhibition at 0.1 µM of at least 75% and an inhibition at 1 µM of at least 75%.

Take `Cc1nn(CCCCCC#Cc2cccc(C(=O)NC3CCC(=O)NC3=O)c2F)c2cc(C(=O)Nc3cc4[nH]c([C@H]5CCCN5C)cc4cn3)ccc12` (stereo partly drawn) [Example 34, 1-(7-(3-((2,6-dioxopiperidin-3-yl)carbamoyl)-2-fluorophenyl)hept-6-yn-1-yl)-3-methyl-N-(2-((R)-1-methylpyrrolidin-2-yl)-1H-pyrrolo[3,2-c]pyridin-6-yl)-1H-indazole-6-carboxamide]: the inhibition at 0.01 µM was below 25%, the inhibition at 0.1 µM is 50 to 75% and the inhibition at 1 µM was at least 75%.

For `Cc1c2ccc(C(=O)Nc3cc4[nH]c([C@H]5CCCN5C)cc4cn3)cc2nn1CCCCCCCCNc1cccc2c1C(=O)N(C1CCC(=O)NC1=O)C2=O` (stereo partly drawn) [Example 5, 2-(8-((2-(2,6-dioxopiperidin-3-yl)-1,3-dioxoisoindolin-4-yl)amino)octyl)-3-methyl-N-(2-((R)-1-methylpyrrolidin-2-yl)-1H-pyrrolo[3,2-c]pyridin-6-yl)-2H-indazole-6-carboxamide], the inhibition at 0.01 µM lay in the range of 50 to 75%, the inhibition at 0.1 µM lay within 50 to 75% and the inhibition at 1 µM fell in the range of 25 to 50%.

In turn, `CN1CCC[C@@H]1c1cc2cnc(NC(=O)c3ccc4cnn(CCCCCCCC#Cc5cccc6c5CN(C5CCC(=O)NC5=O)C6=O)c4c3)cc2[nH]1` (stereo partly drawn) [Example 55, 1-(9-(2-(2,6-dioxopiperidin-3-yl)-1-oxoisoindolin-4-yl)non-8-yn-1-yl)-N-(2-((R)-1-methylpyrrolidin-2-yl)-1H-pyrrol[3,2-c]pyridin-6-yl)-1H-indazole-6-carboxamide] showed an inhibition at 0.01 µM of 50 to 75%, an inhibition at 0.1 µM of at least 75% and an inhibition at 1 µM of at least 75%.

As to `Cc1nn(CCCC2CCN(c3ccc(C(=O)NC4CCC(=O)NC4=O)cc3F)CC2)c2cc(C(=O)Nc3cc4[nH]c([C@H]5CCCN5C)cc4cn3)ccc12` (stereo partly drawn) [Example 28, 1-(3-(1-(4-((2,6-dioxopiperidin-3-yl)carbamoyl)-2-fluorophenyl)piperidin-4-yl)propyl)-3-methyl-N-(2-((R)-1-methylpyrrolidin-2-yl)-1H-pyrrolo[3,2-c]pyridin-6-yl)-1H-indazole-6-carboxamide], the inhibition at 0.1 µM fell in the range of 25 to 50% and the inhibition at 1 µM is 25 to 50%.

`Cc1nn(CCCC2CCN(c3cccc4c3C(=O)N(C3CCC(=O)NC3=O)C4=O)CC2)c2cc(C(=O)Nc3cc4[nH]c([C@H]5CCCN5C)cc4cn3)ccc12` (stereo partly drawn) [Example 27, 1-(3-(1-(2-(2,6-dioxopiperidin-3-yl)-1,3-dioxoisoindolin-4-yl)piperidin-4-yl)propyl)-3-methyl-N-(2-((R)-1-methylpyrrolidin-2-yl)-1H-pyrrolo[3,2-c]pyridin-6-yl)-1H-indazole-6-carboxamide] registered an inhibition at 0.01 µM of at least 75%, an inhibition at 0.1 µM of at least 75% and an inhibition at 1 µM of at least 75%.

For the molecule `Cc1nn(C2CCC(CCCC#Cc3cccc4c3CN(C3CCC(=O)NC3=O)C4=O)CC2)c2cc(C(=O)Nc3cc4[nH]c([C@H]5CCCN5C)cc4cn3)ccc12` (stereo partly drawn) [Example 74, 1-(4-(5-(2-(2,6-dioxopiperidin-3-yl)-1-oxoisoindolin-4-yl)pent-4-yn-1-yl)cyclohexyl)-3-methyl-N-(2-((R)-1-methylpyrrolidin-2-yl)-1H-pyrrolo[3,2-c]pyridin-6-yl)-1H-indazole-6-carboxamide], the inhibition at 0.01 µM was in the range of 50 to 75%, the inhibition at 0.1 µM fell in the range of 50 to 75% and the inhibition at 1 µM was at least 75%.
